Source: ChEMBL document CHEMBL1136111 (Bioorg Med Chem Lett, 2003)
Values after ≈ are worked out from the molar mass of the structure shown.

What was measured:
Streptococcus pneumoniae [1] = assay: Minimum inhibitory concentration against Streptococcus pneumoniae (PS; Penicillin sensitive) STP6301; type: functional
Staphylococcus aureus [2] = assay: Minimum inhibitory concentration against Staphylococcus aureus (MRCR; Methicillin resistant, ciprofloxacin resistant) MI339
Escherichia coli [3] = assay: Minimum inhibitory concentration against Escherichia coli DC0; type: functional
Pseudomonas aeruginosa = assay: Minimum inhibitory concentration against Pseudomonas aeruginosa PS96; type: functional
[4] = test system: Staphylococcus saprophyticus; assay: Minimum inhibitory concentration against Staphylococcus saprophyticus SS276; type: functional
Streptococcus pneumoniae [5] = assay: Minimum inhibitory concentration against Streptococcus pneumoniae PS; Penicillin sensitive) STP64; type: functional
Proteus mirabilis = assay: Minimum inhibitory concentration against Proteus mirabilis PR91; type: functional
[6] = target: DNA gyrase (Escherichia coli); assay: Inhibitory activity against quinolone resistant gyrase in Escherichia coli
Enterococcus faecium [7] = assay: Minimum inhibitory concentration against Enterococcus faecium (VS; Vancomycin sensitive) EF1; type: functional
Klebsiella pneumoniae [8] = assay: Minimum inhibitory concentration against Klebsiella pneumoniae (CR; Ciprofloxacin resistant) KL328; type: functional
DNA topoisomerase II = DNA topoisomerase II (Homo sapiens, UniProt P11388+Q02880); assay: Inhibitory activity against mammalian DNA topoisomerase II; type: protein assay
Streptococcus viridans = assay: Minimum inhibitory concentration against Streptococcus viridans STV1; type: functional
Escherichia coli [9] = assay: Minimum inhibitory concentration against Escherichia coli DC2; type: functional
Enterococcus faecium [10] = assay: Minimum inhibitory concentration against Enterococcus faecium (VR; Vancomycin resistant) EF12; MIC (ug/mL) No growth; type: functional, organism-based
Staphylococcus aureus [11] = assay: Minimum inhibitory concentration against Staphylococcus aureus (MSCS; Methicillin sensitive, ciprofloxacin sensitive) MI273; type: functional
Escherichia coli [12] = assay: Minimum inhibitory concentration against Escherichia coli ES142; type: functional
[13] = target: DNA gyrase (Escherichia coli); assay: Inhibitory activity against wild type gyrase in Escherichia coli
Streptococcus pyogenes = assay: Minimum inhibitory concentration against Streptococcus pyogenes STA2; type: functional
Staphylococcus aureus [14] = assay: Minimum inhibitory concentration against Staphylococcus aureus (MRCS; Methicillin resistant, ciprofloxacin sensitive) MI300; type: functional
Staphylococcus aureus [15] = assay: Minimum inhibitory concentration against Staphylococcus aureus (MSCR; Methicillin sensitive, ciprofloxacin resistant) MI345; type: functional
Moraxella catarrhalis = assay: Minimum inhibitory concentration against Moraxella catarrhalis MC2; type: functional
Klebsiella pneumoniae [16] = assay: Minimum inhibitory concentration against Klebsiella pneumoniae KL21; type: functional
Staphylococcus aureus [17] = assay: Minimum inhibitory concentration against Staphylococcus aureus (MSCS; Methicillin sensitive, ciprofloxacin sensitive) MI246; type: functional
Enterobacter cloacae [18] = assay: Minimum inhibitory concentration against Enterobacter cloacae AE63; type: functional
Enterococcus faecalis [19] = assay: Minimum inhibitory concentration against Enterococcus faecalis STD44; MIC (ug/mL) No growth
[20] = test system: Staphylococcus epidermidis; assay: Minimum inhibitory concentration against Staphylococcus epidermidis (MSCR; Methicillin sensitive, ciprofloxacin resistant) SE48; type: functional
Enterococcus faecalis [21] = assay: Minimum inhibitory concentration against Enterococcus faecalis STD44
Streptococcus pneumoniae [22] = assay: Minimum inhibitory concentration against Streptococcus pneumoniae (PS; Penicillin sensitive) STP6301; MIC (ug/mL) No growth; type: functional, organism-based
Enterococcus faecium [23] = assay: Minimum inhibitory concentration against Enterococcus faecium (VR; Vancomycin resistant) EF12; type: functional
Streptococcus pneumoniae [24] = assay: Minimum inhibitory concentration against Streptococcus pneumoniae (PR; Penicillin resistant) STP51; type: functional
Enterobacter cloacae [25] = assay: Minimum inhibitory concentration against Enterobacter cloacae AE63; MIC (ug/mL) No growth; type: functional, organism-based

| Compound | MIC (Staphylococcus aureus [2]) | MIC (Escherichia coli [3]) | MIC (Pseudomonas aeruginosa) | MIC [4] | MIC (Proteus mirabilis) | IC50 [6] | MIC (Enterococcus faecium [7]) | MIC (Klebsiella pneumoniae [8]) | IC50 (DNA topoisomerase II) | MIC (Streptococcus viridans) | MIC (Escherichia coli [9]) | MIC (Staphylococcus aureus [11]) | MIC (Escherichia coli [12]) | MIC (Streptococcus pyogenes) | MIC (Staphylococcus aureus [14]) | MIC (Staphylococcus aureus [15]) | MIC (Moraxella catarrhalis) | MIC (Klebsiella pneumoniae [16]) | MIC (Staphylococcus aureus [17]) | MIC [20] | other results |
| --- | --- | --- | --- | --- | --- | --- | --- | --- | --- | --- | --- | --- | --- | --- | --- | --- | --- | --- | --- | --- | --- |
| C[C@H]1COc2c(N3CCC[C@H](N)C3)ccc3c(=O)c(C(=O)O)cn1c23 | > 32 µg/mL | 16 µg/mL (≈ 46.6 µM) | > 32 µg/mL | 16 µg/mL (≈ 46.6 µM) | 2 µg/mL (≈ 5.82 µM) | > 500 µg/mL | > 32 µg/mL | > 32 µg/mL | > 500 µg/mL | > 32 µg/mL | 2 µg/mL (≈ 5.82 µM) | 4 µg/mL (≈ 11.6 µM) | 1 µg/mL (≈ 2.91 µM) | > 32 µg/mL | 2 µg/mL (≈ 5.82 µM) | > 32 µg/mL | 2 µg/mL (≈ 5.82 µM) | 0.25 µg/mL (≈ 0.728 µM) | 2 µg/mL (≈ 5.82 µM) | > 32 µg/mL | MIC (Streptococcus pneumoniae [1]): > 32 µg/mL; MIC (Streptococcus pneumoniae [5]): > 32 µg/mL; MIC (Enterococcus faecium [10]): No growth; IC50 [13]: 63 µg/mL (≈ 183 µM); MIC (Enterobacter cloacae [18]): 0.25 µg/mL (≈ 0.728 µM); MIC (Enterococcus faecalis [19]): No growth |
| C[C@H](N)[C@@H]1CCN(c2ccc3c(=O)c(C(=O)O)cn4c3c2OC[C@@H]4C)C1 | 2 µg/mL (≈ 5.6 µM) | 2 µg/mL (≈ 5.6 µM) | 1 µg/mL (≈ 2.8 µM) | 0.125 µg/mL (≈ 0.35 µM) | 2 µg/mL (≈ 5.6 µM) | 51.2 µg/mL (≈ 143 µM) | 1 µg/mL (≈ 2.8 µM) | > 8 µg/mL | 38 µg/mL (≈ 106 µM) | 0.125 µg/mL (≈ 0.35 µM) | 0.063 µg/mL (≈ 0.176 µM) | 0.125 µg/mL (≈ 0.35 µM) | 0.5 µg/mL (≈ 1.4 µM) | 0.016 µg/mL (≈ 0.0448 µM) | 0.063 µg/mL (≈ 0.176 µM) | 1 µg/mL (≈ 2.8 µM) | 0.125 µg/mL (≈ 0.35 µM) | 0.016 µg/mL (≈ 0.0448 µM) | 0.031 µg/mL (≈ 0.0867 µM) | 1 µg/mL (≈ 2.8 µM) | MIC (Enterococcus faecalis [21]): 0.031 µg/mL (≈ 0.0867 µM); MIC (Streptococcus pneumoniae [22]): No growth; MIC (Enterococcus faecium [23]): 1 µg/mL (≈ 2.8 µM); IC50 [13]: 6.4 µg/mL (≈ 17.9 µM); MIC (Enterobacter cloacae [18]): 0.125 µg/mL (≈ 0.35 µM); MIC (Streptococcus pneumoniae [24]): 0.063 µg/mL (≈ 0.176 µM) |
| C[C@H]1COc2c(N3CCN(C)CC3)c(F)cc3c(=O)c(C(=O)O)cn1c23.C[C@H]1COc2c(N3CCN(C)CC3)c(F)cc3c(=O)c(C(=O)O)cn1c23.O [LEVOFLOXACIN] | 2 µg/mL | 0.25 µg/mL | 0.5 µg/mL | 0.12 µg/mL | 0.06 µg/mL | – | 0.25 µg/mL | 4 µg/mL | – | 0.25 µg/mL | 0.25 µg/mL | 0.12 µg/mL | – | 0.5 µg/mL | 0.12 µg/mL | 2 µg/mL | 0.03 µg/mL | < 0.004 µg/mL | 0.12 µg/mL | 2 µg/mL | MIC (Enterococcus faecalis [21]): 0.25 µg/mL; MIC (Enterococcus faecium [23]): 1 µg/mL; MIC (Enterobacter cloacae [18]): 0.008 µg/mL |
| C[C@H]1COc2c(N3CC[C@@H](C(C)(C)N)C3)ccc3c(=O)c(C(=O)O)cn1c23 | 2 µg/mL (≈ 5.38 µM) | 4 µg/mL (≈ 10.8 µM) | 4 µg/mL (≈ 10.8 µM) | 0.031 µg/mL (≈ 0.0835 µM) | 4 µg/mL (≈ 10.8 µM) | > 102 µg/mL | 1 µg/mL (≈ 2.69 µM) | > 8 µg/mL | 150 µg/mL (≈ 404 µM) | 1 µg/mL (≈ 2.69 µM) | 0.125 µg/mL (≈ 0.337 µM) | 0.125 µg/mL (≈ 0.337 µM) | 0.5 µg/mL (≈ 1.35 µM) | 0.016 µg/mL (≈ 0.0431 µM) | 0.063 µg/mL (≈ 0.17 µM) | 2 µg/mL (≈ 5.38 µM) | 0.063 µg/mL (≈ 0.17 µM) | 0.031 µg/mL (≈ 0.0835 µM) | 0.063 µg/mL (≈ 0.17 µM) | 1 µg/mL (≈ 2.69 µM) | MIC (Streptococcus pneumoniae [1]): 0.016 µg/mL (≈ 0.0431 µM); MIC (Enterococcus faecalis [21]): 0.125 µg/mL (≈ 0.337 µM); MIC (Enterococcus faecium [23]): 1 µg/mL (≈ 2.69 µM); IC50 [13]: 3.2 µg/mL (≈ 8.62 µM); MIC (Enterobacter cloacae [18]): 0.25 µg/mL (≈ 0.673 µM); MIC (Streptococcus pneumoniae [24]): 0.5 µg/mL (≈ 1.35 µM) |
| C[C@H]1COc2c(N3CCN(C)CC3)ccc3c(=O)c(C(=O)O)cn1c23 | > 32 µg/mL | > 32 µg/mL | > 32 µg/mL | 4 µg/mL (≈ 11.6 µM) | 8 µg/mL (≈ 23.3 µM) | > 500 µg/mL | > 32 µg/mL | > 32 µg/mL | 250 µg/mL (≈ 728 µM) | 32 µg/mL (≈ 93.2 µM) | 16 µg/mL (≈ 46.6 µM) | 8 µg/mL (≈ 23.3 µM) | 8 µg/mL (≈ 23.3 µM) | 4 µg/mL (≈ 11.6 µM) | 4 µg/mL (≈ 11.6 µM) | > 32 µg/mL | 4 µg/mL (≈ 11.6 µM) | 1 µg/mL (≈ 2.91 µM) | 4 µg/mL (≈ 11.6 µM) | > 32 µg/mL | MIC (Streptococcus pneumoniae [1]): 16 µg/mL (≈ 46.6 µM); MIC (Streptococcus pneumoniae [5]): 16 µg/mL (≈ 46.6 µM); MIC (Enterobacter cloacae [25]): No growth; MIC (Enterococcus faecium [10]): No growth; IC50 [13]: 31 µg/mL (≈ 90.3 µM); MIC (Streptococcus pneumoniae [24]): 32 µg/mL (≈ 93.2 µM); MIC (Enterococcus faecalis [19]): No growth |
